Reference: ChEMBL document CHEMBL1177687, “Synthesis and CYP24A1 inhibitory activity of N-(2-(1H-imidazol-1-yl)-2-phenylethyl)arylamides” (Bioorg Med Chem, 2010)
pIC50: −log10 of the molar value.

target: T1, 1,25-dihydroxyvitamin D(3) 24-hydroxylase, mitochondrial (Homo sapiens, UniProt Q07973); experiment: Inhibition of CYP24A1; format: ADME
T1 sequence (Q07973 whole entry): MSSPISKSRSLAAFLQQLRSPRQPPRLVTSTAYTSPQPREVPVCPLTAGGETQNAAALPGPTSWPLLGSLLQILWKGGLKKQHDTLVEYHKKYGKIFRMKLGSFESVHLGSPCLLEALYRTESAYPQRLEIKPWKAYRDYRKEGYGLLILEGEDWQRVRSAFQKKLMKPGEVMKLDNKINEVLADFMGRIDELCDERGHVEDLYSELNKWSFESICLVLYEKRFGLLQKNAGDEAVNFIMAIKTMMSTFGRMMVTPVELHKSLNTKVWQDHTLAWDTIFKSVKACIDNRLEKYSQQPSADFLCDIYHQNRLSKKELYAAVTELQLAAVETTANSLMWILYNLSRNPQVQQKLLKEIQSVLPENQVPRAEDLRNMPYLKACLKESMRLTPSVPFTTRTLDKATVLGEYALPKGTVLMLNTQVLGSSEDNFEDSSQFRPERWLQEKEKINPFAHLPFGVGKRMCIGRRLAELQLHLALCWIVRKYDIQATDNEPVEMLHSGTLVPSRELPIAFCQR

pIC50 | SMILES
7.82 | O=C(NC[C@@H](c1ccccc1)n1ccnc1)c1ccc(-c2ccc(Cl)cc2)cc1

target: T1, 1,25-dihydroxyvitamin D(3) 24-hydroxylase, mitochondrial; experiment: Inhibition of human recombinant CYP24A1 expressed in chinese hamster V79 cells using [3H-1-beta]calcitriol after 60 mins by scintillation counting; format: ADME, cell-based

SMILES | pIC50
O=C(NCC(c1ccccc1)n1ccnc1)c1ccc(Br)cc1 (centres undefined) | 4.64
O=C(NCC(c1ccc(Cl)cc1)n1ccnc1)c1cc2ccccc2o1 (centres undefined) | 4.97
COc1ccc2cc(C(=O)NCC(c3ccccc3)n3ccnc3)oc2c1 (centres undefined) | 4.43
O=C(NCC(c1ccccc1)n1ccnc1)c1cc2cc([N+](=O)[O-])ccc2o1 (centres undefined) | 5.19
O=C(NCC(c1ccccc1)n1ccnc1)c1ccc(Cc2ccccc2)cc1 (centres undefined) | 4.14

Next, values leading:

pIC50 | SMILES
5.55 | O=C(NCC(c1ccc(F)cc1)n1ccnc1)c1cc2ccccc2o1 (centres undefined)
5.40 | O=C(NCC(c1ccccc1)n1ccnc1)c1cc2ccccc2o1 (centres undefined)
6.52 | O=C(NCC(c1ccccc1)n1ccnc1)c1ccc(/C=C/c2ccccc2)cc1 (centres undefined)
